IC50 data for 11 compounds are collected here from patent publication US8450308B2 (Vitae Pharmaceuticals, Inc., priority 2008, dated 2013).

Experiment [1] concerns the target T1, truncated human beta-secretase (residues 1-458, His6-tagged at the C-terminus) (Homo sapiens, UniProt P56817).
T1 construct: truncated human beta-secretase (residues 1-458, His6-tagged at the C-terminus); His6 (C); made in house; host or cells: insect cells D. melanogaster S2 (baculovirus expression system (so in the source))
Briefly: BACE fluorescence quench assay. It is filed as biochemical. The conditions noted are these: in vitro enzyme activity, BACE fluorescence assay, pH 4.5; read-out: IC50.

Experiment [2] in a line: BACE cell assay: soluble Amyloid Beta 1-40 (Aβ 1-40) in culture media of H4-APPsw cells. In kind it is cell-based.
The mark [3] stands for this setting: in vitro cell activity, H4-APPsw cells, secreted Aβ 1-40, overnight treatment, read-out: IC50.

Broadly, the IC50 is the concentration at which inhibition is half-maximal.

Each structure is given as a SMILES string. Like-named read-outs stand apart in the source and are kept apart here.

T1 sequence (P56817 22-458): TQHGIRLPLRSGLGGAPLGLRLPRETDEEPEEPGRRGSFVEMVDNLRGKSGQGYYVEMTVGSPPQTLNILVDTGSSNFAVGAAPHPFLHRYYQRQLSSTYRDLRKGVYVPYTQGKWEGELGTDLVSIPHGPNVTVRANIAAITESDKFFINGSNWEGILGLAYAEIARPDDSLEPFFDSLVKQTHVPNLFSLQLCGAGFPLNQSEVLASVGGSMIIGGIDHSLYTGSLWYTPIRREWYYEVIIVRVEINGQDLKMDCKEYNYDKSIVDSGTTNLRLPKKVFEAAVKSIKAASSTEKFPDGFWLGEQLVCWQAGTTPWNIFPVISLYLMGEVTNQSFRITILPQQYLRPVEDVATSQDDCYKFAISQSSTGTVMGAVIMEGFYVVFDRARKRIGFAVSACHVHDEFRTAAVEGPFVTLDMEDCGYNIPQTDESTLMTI

In the case of `COc1cc(OC)cc(-c2ccc3c(c2)[C@]2(C[C@@]4(CCCOC4)O3)N=C(N)N(C)C2=O)c1` [Compound 333], the figures for the IC50 in experiment [1] and in experiment [2] (setting [3]) were 0.1 to 0.5 µM and 1 to 5 µM, respectively.

For the compound `CN1C(=O)C2(CC3(CCCOC3)Oc3ccc(-c4cccc(C(F)(F)F)c4)cc32)N=C1N` (stereo not shown) [Compound 338], the half-maximal inhibitory concentration (IC50) in experiment [1] was 0.1 to 0.5 µM; in experiment [2] (setting [3]), 1 to 5 µM.

In the case of `CN1OC2(C[C@H](C34CCC(CC3)OC4)Oc3ccc(-c4cccc(C#N)c4)cc32)N=C1N` (stereo partly shown) [Compound 345], the half-maximal inhibitory concentration (IC50) is 0.1 to 0.5 µM in experiment [1] and 5 to 10 µM in experiment [2] (setting [3]).

`CN1O[C@]2(C[C@@H]([C@H]3CCCOC3)Oc3ccc(-c4cc(F)cc(F)c4)cc32)N=C1N` [Compound 348]: the IC50 in experiment [1] lay in the range of 0.5 to 1 µM; in experiment [2] (setting [3]) it was 5 to 10 µM.

As to `CN1OC2(CC3(CCCc4ccccc4C3)Oc3ccc(Br)cc32)N=C1N` (stereo not shown) [Compound 349], the IC50 lay in the range of 0.5 to 1 µM in experiment [1] and 1 to 5 µM in experiment [2] (setting [3]).

Turning to `CN1OC2(CC3(CCCc4ccccc4C3)Oc3ccc(-c4ccc5cc[nH]c5c4)cc32)N=C1N` (stereo not shown) [Compound 352], the values for the half-maximal inhibitory concentration (IC50) in experiment [1] and in experiment [2] (setting [3]) were 0.5 to 1 µM and 1 to 5 µM, respectively.

Consider `CN1OC2(CC3(CCN(c4ncccn4)CC3)Oc3ccc(-c4cccc(C#N)c4)cc32)N=C1N` (stereo not shown) [Compound 353], for which the IC50 in experiment [1] lay in the range of 0.5 to 1 µM; in experiment [2] (setting [3]), 10 to 50 µM.

`CN1OC2(CC3(CCCN(c4ccccc4)C3)Oc3ccc(-c4cccc(C#N)c4)cc32)N=C1N` (stereo not shown) [Compound 355]: the concentration for half-maximal inhibition (IC50) in experiment [1] lay within 0.5 to 1 µM; in experiment [2] (setting [3]) it was 5 to 10 µM.

With `COc1cccc2c1CCCC1(C2)CC2(N=C(N)N(C)O2)c2cc(Br)ccc2O1` (stereo not shown) [Compound 373], the 50% inhibitory concentration (IC50) lay within 0.5 to 1 µM in experiment [1] and 5 to 10 µM in experiment [2] (setting [3]).

Regarding `CN1OC2(CC3(CCCc4ccccc43)Oc3ccc(-c4cc(F)cc(F)c4)cc32)N=C1N` (stereo not shown) [Compound 402], the IC50 fell in the range of 1 to 5 µM in experiment [1] and 10 to 50 µM in experiment [2].

Consider `Cc1cc2c(cc1-c1cccc(C#N)c1)C1(CC3(CCCOC3)O2)N=C(N)N(C)O1` (stereo not shown) [Compound 432, 3-(3″-amino-2″,7-dimethyl-2″H-spiro[spiro[chroman-2,1′-(3-oxacyclohexane)]-4,5′-[1,2,4]oxadiazole]-6-yl)benzonitrile], for which the IC50 is 5 to 10 µM in experiment [1] and 10 to 50 µM in experiment [2] (setting [3]).
